In PMC5315062 (Oncology and Therapy, 2016):
“Also recorded” adds a separate entry of the source.

Columns and labels:
[1] = system: BCR–ABL1; details: cited from earlier work
[2] = Tissue distribution in rats after i.g. 15.0 mg/kg; assay type: in vivo, Sprague–Dawley rats; details: for exposure in lung and thyroid: rat, 3, 9, 24 h
[3] = Toxicity and mortality after repeated intragastric administration in rats; assay type: in vivo
[4] = Stability of ponatinib in rat bio-samples under different storage conditions; assay type: in vitro ADME; details: rat plasma, urine, feces; all RE (%) and RSD (%) below 15%
[5] = in vitro; large decrease in solubility with increasing pH; cited from earlier work
[6] = healthy subjects, meal within 30 min prior to single oral administration; cited from earlier work
[7] = Single-dose pharmacokinetics of ponatinib in rats; assay type: in vivo, Sprague–Dawley rats; details: rat; for half-life: T 1/2, rat; for Tmax: T max
[8] = Single- versus multi-dose; details: rat
[9] = both, Sprague-Dawley, plasma, iv, 3 mg/kg
[10] = both, Sprague-Dawley, plasma, po, 7.5 mg/kg
[11] = both, Sprague-Dawley, plasma, po, 7.5 mg/kg, i.g. 7.5 mg/kg
[12] = both, Sprague-Dawley, plasma, po, 15 mg/kg
[13] = both, Sprague-Dawley, plasma, po, 15 mg/kg, i.g. 15.0 mg/kg
[14] = both, Sprague-Dawley, plasma, po, 30 mg/kg
[15] = both, Sprague-Dawley, plasma, po, 30 mg/kg, i.g. 30.0 mg/kg
[16] = both, Sprague-Dawley, in vivo, po, 3.75 mg/kg
[17] = i.g. 3.75 mg/kg once a day for 7 days (multi-dose)

Which results are given for `Cc1ccc(C(=O)Nc2ccc(CN3CCN(C)CC3)c(C(F)(F)F)c2)cc1C#Cc1cnc2cccnn12` [ponatinib, Ponatinib]?
concentration at which BCR–ABL1 is inhibited [1]: above 40 nmol/L; distribution into tissues of the body ([2]; rat): distributed widely; also recorded: widely distributed; level in stomach, intestine and liver ([2]; rat): fairly low; exposure in lung and thyroid [2]: highly exposed; also recorded: highest levels; exposure in lung and thyroid ([2]; listed as Ponatinib): highest exposure; toxicity ([3]; 3.75 mg/kg consecutive administration for 7 days): Toxicity was displayed to some extent; mortality ([3]; repeated intragastric administration over 6 mg/kg): increased; also recorded: high mortality; stability under various storage conditions [4]: stable; aqueous solubility [5]: pH-dependent; effect of a high- or low-fat meal on single-dose pharmacokinetics [6]: no effect; AUC(0-inf) [7, 9]: 2180 ± 462 ng·h/mL; MRT [7, 9]: 9.77 ± 0.66 h; clearance [7, 9]: 23.8 mL/min/kg; concentration at 5 min [7, 9]: 281 ± 129 ng/mL; half-life ([7]; both, Sprague-Dawley, plasma, iv, 3 mg/kg, i.v. 3.0 mg/kg): 6.17 ± 0.95 h; AUC(0-inf) [7, 10]: 1910 ± 353 ng·h/mL; Cmax [7, 10]: 104 ± 23.4 ng/mL; MRT [7, 10]: 16.4 ± 1.25 h; half-life [7, 11]: 10.9 ± 1.06 h; Tmax [7, 11]: 8.4 ± 2.19 h; AUC(0-inf) [7, 12]: 5030 ± 1010 ng·h/mL; Cmax [7, 12]: 285 ± 69 ng/mL; MRT [7, 12]: 16.7 ± 2.74 h; half-life [7, 13]: 9.7 ± 1.43 h; Tmax [7, 13]: 8.33 ± 0.82 h; AUC(0-inf) [7, 14]: 11600 ± 2890 ng·h/mL; Cmax [7, 14]: 638 ± 107 ng/mL; MRT [7, 14]: 16.5 ± 2.36 h; half-life [7, 15]: 9.66 ± 0.81 h; Tmax [7, 15]: 7.67 ± 0.82 h; CL ([7]; i.g. 7.5 mg/kg): 67 ± 11.3 mL/min/kg; V ([7]; i.g. 7.5 mg/kg): 63.55 ± 14.02 L/kg; CL ([7]; i.g. 15.0 mg/kg): 51.2 ± 9.33 mL/min/kg; V ([7]; i.g. 15.0 mg/kg): 42.85 ± 5.01 L/kg; CL ([7]; i.g. 30.0 mg/kg): 45.3 ± 12.7 mL/min/kg; V ([7]; i.g. 30.0 mg/kg): 37.78 ± 9.26 L/kg; exposure in plasma in relation to dose ([7]; i.g. 7.5, 15.0, 30.0 mg/kg): dose-dependent exposure; V ([7]; i.v. 3.0 mg/kg): 12.93 ± 4.37 L/kg; Cmax [8, 16]: 129 ± 37.6 ng/mL; Cmax at 7 days [8, 16]: 189 ± 55.7 ng/mL; Tmax [8, 16]: 10 ± 2.19 h; Tmax at 7 days [8, 16]: 6.67 ± 3.01 h; half-life [8, 16]: 11.3 ± 1.46 h; half-life at 7 days [8, 16]: 10.9 ± 1.56 h; CL [8, 17]: 11.7 ± 1.83 mL/min/kg; V [8, 17]: 10.85 ± 1.49 L/kg; CL ([8]; i.g. 3.75 mg/kg, single dose): 29.8 ± 10.2 mL/min/kg; V ([8]; i.g. 3.75 mg/kg, single dose): 28.91 ± 9.47 L/kg
